Experimental data published in US10550105B2 (Ribon Therapeutics Inc., priority 2018, dated 2020).

Target: PARP7 (Homo sapiens (Human), UniProt Q7Z3E1)
Assay: Enzymatic assay for inhibition of PARP7: TR-FRET displacement of biotinylated Probe A from the TIPARP active site
Type: binding
Conditions: Table A-1
Procedure: 20 nL of a dose response curve of each test compound was spotted in black 384-well polystyrene proxiplates (Perkin Elmer) using a Mosquito (TTP Labtech). […] Reactions were incubated at 25° C. for an additional 30 min, then read on an Envision platereader equipped with a LANCE/DELFIA top mirror (Perkin Elmer) using excitation of 320 nm and emission of 615 nm and […] with a 90 μs delay. The ratio of the 665/615 nm emission were calculated for each well to determine the amount of complex of TIPARP and Probe A in each well. […] The Hill Coefficient is normally allowed to float but may also be fixed at 1 in a 3-parameter fit. Y is the % inhibition and x is the compound concentration.

PARP7, sequence (Q7Z3E1 whole entry): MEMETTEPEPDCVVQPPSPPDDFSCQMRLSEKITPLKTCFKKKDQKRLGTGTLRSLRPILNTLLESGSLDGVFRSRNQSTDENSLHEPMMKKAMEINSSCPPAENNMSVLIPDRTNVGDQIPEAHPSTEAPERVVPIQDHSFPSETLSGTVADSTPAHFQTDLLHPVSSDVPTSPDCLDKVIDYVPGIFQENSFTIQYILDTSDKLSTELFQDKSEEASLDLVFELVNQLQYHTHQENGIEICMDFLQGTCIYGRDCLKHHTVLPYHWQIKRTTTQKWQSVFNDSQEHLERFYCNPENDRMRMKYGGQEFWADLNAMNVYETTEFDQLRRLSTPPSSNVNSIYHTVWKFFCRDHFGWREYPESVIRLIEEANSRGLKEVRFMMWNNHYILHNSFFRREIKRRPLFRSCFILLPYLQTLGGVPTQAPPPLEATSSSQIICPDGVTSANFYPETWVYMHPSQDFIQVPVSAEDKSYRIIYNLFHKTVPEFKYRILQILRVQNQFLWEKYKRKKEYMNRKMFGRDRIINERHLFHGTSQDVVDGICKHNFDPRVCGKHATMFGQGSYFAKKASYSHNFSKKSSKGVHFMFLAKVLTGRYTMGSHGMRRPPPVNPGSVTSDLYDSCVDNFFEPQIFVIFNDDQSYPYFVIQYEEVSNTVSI

IC50 [nM]	Structure (SMILES)
< 100	COC[C@H](CO[C@H](C)CC(=O)N1CCN(c2ccc(C#N)cn2)CC1)Oc1cn[nH]c(=O)c1C(F)(F)F (single isomer, unassigned) [Example 571 Isomer A]
< 100	C[C@@H](COCCC(=O)N1CCN(c2ncc(Cl)cn2)CC1)Nc1cn[nH]c(=O)c1C(F)(F)F [Example 562, 5-[[(2S)-1-[3-[4-(5-Chloropyrimidin-2-yl)piperazin-1-yl]-3-oxopropoxy]propan-2-yl]amino]-4-(trifluoromethyl)-2,3-dihydropyridazin-3-one]
< 100	N#Cc1ccc(N2CCN(C(=O)c3ccc(OCCOCC4CCN(c5cn[nH]c(=O)c5C(F)(F)F)C4)cc3)CC2)nc1 (centres unmarked) [Example 465, 6-(4-(4-(2-((1-(6-Oxo-5-(trifluoromethyl)-1,6-dihydropyridazin-4-yl)pyrrolidin-3-yl)methoxy)ethoxy)benzoyl)piperazin-1-yl)nicotinonitrile]
≥ 1000	O=C(CCNC[C@H]1c2ccccc2CN1c1cn[nH]c(=O)c1C(F)(F)F)N1CCN(c2ccc(C(F)(F)F)cn2)CC1 [Example 630, (R)-5-(1-(((3-Oxo-3-(4-(5-(trifluoromethyl)pyridin-2-yl)piperazin-1-yl)propyl)amino)methyl)isoindolin-2-yl)-4-(trifluoromethyl)pyridazin-3(2H)-one]
< 100	O=C(CCOCCNc1cn[nH]c(=O)c1Cl)N1CCN(c2ncc(C(F)(F)F)cn2)CC1 [Example 508, 4-Chloro-5-[[2-(3-oxo-3-[4-[5-(trifluoromethyl)pyrimidin-2-yl]piperazin-1-yl]propoxy)ethyl]amino]-2,3-dihydropyridazin-3-one]
< 100	COC[C@@H](COCCC(=O)N1CCN(c2ncc(C(F)(F)F)cn2)CC1)Sc1cn[nH]c(=O)c1C(F)(F)F [Example 691, (S)-5-((1-Methoxy-3-(3-oxo-3-(4-(5-(trifluoromethyl)pyrimidin-2-yl)piperazin-1-yl)propoxy)propan-2-yl)thio)-4-(trifluoromethyl)pyridazin-3(2H)-one]
100 to 1000	O=c1[nH]ncc(N2Cc3cccc(NCC4CCCO4)c3C2)c1C(F)(F)F (centres unmarked) [Example 254, 5-(4-(((Tetrahydrofuran-2-yl)methyl)amino)isoindolin-2-yl)-4-(trifluoromethyl)pyridazin-3(2H)-one]
100 to 1000	N#Cc1ccc(N2CCN(C(=O)[C@H]3CCC[C@H](OC[C@@H]4CCCN4c4cn[nH]c(=O)c4C(F)(F)F)C3)CC2)nc1 (single isomer, unassigned) [Example 57 Isomer A]
< 100	N#Cc1ccc(N2CCN(C(=O)COCCNc3cn[nH]c(=O)c3C(F)(F)F)CC2)nc1 [Example 499, 6-[4-[2-(2-[[6-Oxo-5-(trifluoromethyl)-1,6-dihydropyridazin-4-yl]amino]ethoxy)acetyl]piperazin-1-yl]pyridine-3-carbonitrile]
< 100	C[C@@H](COCCC(=O)N1CCN(c2ncc(C(F)(F)F)cn2)CC1)Oc1cn[nH]c(=O)c1C(F)(F)F (single isomer, unassigned) [Example 544 Isomer A]
< 100	O=C(c1cncc(OC[C@@H]2c3ccccc3CN2c2cn[nH]c(=O)c2C(F)(F)F)c1)N1CCN(c2ccc(C(F)(F)F)cn2)CC1 [Example 384, (S)-4-(Trifluoromethyl)-5-(1-(((5-(4-(5-(trifluoromethyl)pyridin-2-yl)piperazine-1-carbonyl)pyridin-3-yl)oxy)methyl)isoindolin-2-yl)pyridazin-3(2H)-one]
< 100	C[C@H](O)[C@@H](COCCC(=O)N1CCN(c2ncc(C(F)(F)F)cn2)CC1)Nc1cn[nH]c(=O)c1C(F)(F)F [Example 635, 5-(((2R,3S)-3-Hydroxy-1-(3-oxo-3-(4-(5-(trifluoromethyl)pyrimidin-2-yl)piperazin-1-yl)propoxy)butan-2-yl)amino)-4-(trifluoromethyl)pyridazin-3(2H)-one]
< 100	O=c1[nH]ncc(N2Cc3cccc(F)c3C2)c1C(F)(F)F [Example 180, 5-(4-Fluoroisoindolin-2-yl)-4-(trifluoromethyl)pyridazin-3(2H)-one]
< 100	O=C(c1cncc(OCC2c3ccccc3CN2c2cn[nH]c(=O)c2C(F)(F)F)c1)N1CCN(c2ccc(Cl)cn2)CC1 (centres unmarked) [Example 376, 5-(1-(((5-(4-(5-Chloropyridin-2-yl)piperazine-1-carbonyl)pyridin-3-yl)oxy)methyl)isoindolin-2-yl)-4-(trifluoromethyl)pyridazin-3(2H)-one]
< 100	COc1cc2c(cc1F)CN(c1cn[nH]c(=O)c1C(F)(F)F)C2 [Example 234, 5-(5-Fluoro-6-methoxyisoindolin-2-yl)-4-(trifluoromethyl)pyridazin-3(2H)-one]
< 100	N#Cc1ccc(N2CCN(C(=O)CCO[C@@H]3COC[C@@H]3Oc3cn[nH]c(=O)c3C(F)(F)F)CC2)nc1 [Example 531, 6-[4-(3-[[(3R,4S)-4-[[6-Oxo-5-(trifluoromethyl)-1,6-dihydropyridazin-4-yl]oxy]oxolan-3-yl]oxy]propanoyl)piperazin-1-yl]pyridine-3-carbonitrile]

IC50 [nM]	Structure (SMILES)
< 100	N#Cc1cnc(N2CCN(C(=O)c3cccc(OCC4c5ccccc5CN4c4cn[nH]c(=O)c4C(F)(F)F)c3)CC2)nc1 (centres unmarked) [Example 361, 2-(4-(3-((2-(6-Oxo-5-(trifluoromethyl)-1,6-dihydropyridazin-4-yl)isoindolin-1-yl)methoxy)benzoyl)piperazin-1-yl)pyrimidine-5-carbonitrile]
≥ 1000	O=C(C[C@H]1CC[C@H](COc2cn[nH]c(=O)c2Cl)O1)N1CCN(c2ncc(C(F)(F)F)cn2)CC1 (single isomer, unassigned) [Example 575 Isomer B]
< 100	N#Cc1cccnc1N1CCN(C(=O)CCOC[C@@H]2CCCN2c2cn[nH]c(=O)c2C(F)(F)F)CC1 [Example 463, (S)-2-(4-(3-((1-(6-Oxo-5-(trifluoromethyl)-1,6-dihydropyridazin-4-yl)pyrrolidin-2-yl)methoxy)propanoyl)piperazin-1-yl)nicotinonitrile]
< 100	O=c1[nH]ncc(N2Cc3cccc(Oc4ccncn4)c3C2)c1C(F)(F)F [Example 195, 5-(4-(Pyrimidin-4-yloxy)isoindolin-2-yl)-4-(trifluoromethyl)pyridazin-3(2H)-one]
≥ 1000	C[C@@H]1c2ccccc2CN1c1cn[nH]c(=O)c1C(F)(F)F [Example 251, (R)-5-(1-Methylisoindolin-2-yl)-4-(trifluoromethyl)pyridazin-3(2H)-one]
< 100	CC(C)Oc1cccc2c1CN(c1cn[nH]c(=O)c1C(F)(F)F)C2 [Example 193, 5-(4-Isopropoxyisoindolin-2-yl)-4-(trifluoromethyl)pyridazin-3(2H)-one]
100 to 1000	N#Cc1ccc(N2CCN(C(=O)CCOC[C@H]3c4ccccc4CN3c3cn[nH]c(=O)c3Cl)CC2)nc1 [Example 414, (R)-6-(4-(3-((2-(5-Chloro-6-oxo-1,6-dihydropyridazin-4-yl)isoindolin-1-yl)methoxy)propanoyl)piperazin-1-yl)nicotinonitrile]
< 100	N#Cc1ccc(N2CCN(C(=O)CCOCCNc3cn[nH]c(=O)c3Cl)CC2)nc1 [Example 507]
≥ 1000	CC(=O)NCC1c2ccccc2CN1c1cn[nH]c(=O)c1C(F)(F)F (centres unmarked) [Example 264, N-((2-(6-Oxo-5-(trifluoromethyl)-1,6-dihydropyridazin-4-yl)isoindolin-1-yl)methyl)acetamide]
≥ 1000	O=C(CCNC[C@H]1c2ccccc2CN1c1cn[nH]c(=O)c1C(F)(F)F)N1CCN(c2ncc(C(F)(F)F)cn2)CC1 [Example 434, (R)-5-(1-(((3-Oxo-3-(4-(5-(trifluoromethyl)pyrimidin-2-yl)piperazin-1-yl)propyl)amino)methyl)isoindolin-2-yl)-4-(trifluoromethyl)pyridazin-3(2H)-one]
100 to 1000	NC1CCCN(c2cccc3c2CN(c2cn[nH]c(=O)c2C(F)(F)F)C3)C1 (centres unmarked) [Example 301, 5-(4-(3-Aminopiperidin-1-yl)isoindolin-2-yl)-4-(trifluoromethyl)pyridazin-3(2H)-one]
100 to 1000	N#Cc1ccc(N2CCN(C(=O)c3cccc(OCC4CCCCN4c4cn[nH]c(=O)c4C(F)(F)F)c3)CC2)nc1 (centres unmarked) [Example 40, 6-(4-[[3-([1-[6-oxo-5-(trifluoromethyl)-1,6-dihydropyridazin-4-yl]piperidin-2-yl]methoxy)phenyl]carbonyl]piperazin-1-yl)pyridine-3-carbonitrile]
< 100	N#Cc1ccc(N2CCN(C(=O)C[C@@H]3CC[C@@H]([C@@H]4CCCN4c4cn[nH]c(=O)c4C(F)(F)F)O3)CC2)nc1 [Example 141A, 6-(4-[2-[(2S,5S)-5-[(2S)-1-[6-oxo-5-(trifluoromethyl)-1,6-dihydropyridazin-4-yl]pyrrolidin-2-yl]oxolan-2-yl]acetyl]piperazin-1-yl)pyridine-3-carbonitrile]
< 100	N#Cc1ccc(N2CCN(C(=O)c3nccc(OCC4c5ccccc5CN4c4cn[nH]c(=O)c4C(F)(F)F)n3)CC2)nc1 (centres unmarked) [Example 46, 6-(4-[[4-([2-[6-oxo-5-(trifluoromethyl)-1,6-dihydropyridazin-4-yl]-2,3-dihydro-1H-isoindol-1-yl]methoxy)pyrimidin-2-yl]carbonyl]piperazin-1-yl)pyridine-3-carbonitrile]
100 to 1000	N#Cc1ccc(N2CCN(C(=O)C[C@@H]3CC[C@H]([C@@H]4CCCN4c4cn[nH]c(=O)c4C(F)(F)F)O3)CC2)nc1 [Example 141C, 6-(4-[2-[(2S,5R)-5-[(2S)-1-[6-oxo-5-(trifluoromethyl)-1,6-dihydropyridazin-4-yl]pyrrolidin-2-yl]oxolan-2-yl]acetyl]piperazin-1-yl)pyridine-3-carbonitrile]

Structure (SMILES)	IC50 [nM]
NCCOc1ccc2c(n1)CN(c1cn[nH]c(=O)c1C(F)(F)F)C2 [Example 317, 5-(2-(2-Aminoethoxy)-5,7-dihydro-6H-pyrrolo[3,4-b]pyridin-6-yl)-4-(trifluoromethyl)pyridazin-3(2H)-one formic acid]	100 to 1000
